Where “and” joins values, the source holds several entries; their conditions need not be identical. Identical values can stand only once. Counter-ions that a name gives are not always drawn. Like-named read-outs stand apart in the source and are kept apart here.
Columns and labels:
[1] = target: SARS-CoV-2 spike RBD-ACE2 interaction (Homo sapiens, UniProt Q9BYF1); test: biochemical; format: binding; settings: for IC50: IC50 Biosensor
LATS biosensor = format: binding; settings: 4 μM
[2] = test system: SARS-CoV-2-Spike pseudotyped vesicular stomatitis virus (VSV-GFP-Spike); format: cell-based
wild-type nanoluciferase = wild-type nanoluciferase (Oplophorus gracilirostris, UniProt Q9GV45, A31E/A60N/A81I/F95D/I117V/K70R/L54V/L99Q/M102K/N193R/P142E/Q151K/Q38R/Q45L/V71I/Y165I); format: biochemical; settings: 4 μM
[3] = test system: fusion between spike and ACE2 (HEK293T cells); format: cell-based
SARS-CoV-2 = format: cell-based
[4] = target: RBD of SARS-CoV (2002)-ACE2 interaction (Homo sapiens, UniProt Q9BYF1); test: biochemical; format: binding
Recombinant ACE2 = Recombinant ACE2 (Homo sapiens, UniProt Q9BYF1)
recombinant sACE2 = recombinant sACE2 (Homo sapiens, UniProt Q9BYF1); format: binding
[5] = in vivo, 0.016 mg/kg; cited from earlier work
[6] = test system: SARS-CoV-2 (strain 291.3 FR-4286); format: cell-based
[7] = target: S1 domain of SARS-CoV-2 spike-ACE2 interaction (Homo sapiens, UniProt Q9BYF1); format: binding
[8] = test system: SARS-CoV-2 VOCs (Alpha, Beta, Delta, cluster5); format: cell-based
VSV-Spike (strain 2) = settings: mouse, in vivo
[9] = rabbit, in vivo; cited from earlier work
wild-type VSV-GFP = format: cell-based
[10] = mouse, in vivo
[11] = test system: SARS-CoV-2 (FR-4286 strain); set-up: species or system K18-hACE2 mice; settings: mouse, in vivo
COVID-19 = settings: cited from earlier work
[12] = Prestwick library screen, 4 μM, compound added to LgBiT-RBD, then SmBiT-ACE2
[13] = Prestwick library screen, 4 μM, compound added to pre-formed RBD:ACE2 complex
[14] = method B, newly purchased drugs, 2–25 μM, Figure 2D
[15] = read-out: inhibition of bioreporter signal, SARS-CoV RBD/ACE2, both methods

RBD of SARS-CoV (2002)-ACE2 interaction, sequence (Q9BYF1 18-740 limits assumed): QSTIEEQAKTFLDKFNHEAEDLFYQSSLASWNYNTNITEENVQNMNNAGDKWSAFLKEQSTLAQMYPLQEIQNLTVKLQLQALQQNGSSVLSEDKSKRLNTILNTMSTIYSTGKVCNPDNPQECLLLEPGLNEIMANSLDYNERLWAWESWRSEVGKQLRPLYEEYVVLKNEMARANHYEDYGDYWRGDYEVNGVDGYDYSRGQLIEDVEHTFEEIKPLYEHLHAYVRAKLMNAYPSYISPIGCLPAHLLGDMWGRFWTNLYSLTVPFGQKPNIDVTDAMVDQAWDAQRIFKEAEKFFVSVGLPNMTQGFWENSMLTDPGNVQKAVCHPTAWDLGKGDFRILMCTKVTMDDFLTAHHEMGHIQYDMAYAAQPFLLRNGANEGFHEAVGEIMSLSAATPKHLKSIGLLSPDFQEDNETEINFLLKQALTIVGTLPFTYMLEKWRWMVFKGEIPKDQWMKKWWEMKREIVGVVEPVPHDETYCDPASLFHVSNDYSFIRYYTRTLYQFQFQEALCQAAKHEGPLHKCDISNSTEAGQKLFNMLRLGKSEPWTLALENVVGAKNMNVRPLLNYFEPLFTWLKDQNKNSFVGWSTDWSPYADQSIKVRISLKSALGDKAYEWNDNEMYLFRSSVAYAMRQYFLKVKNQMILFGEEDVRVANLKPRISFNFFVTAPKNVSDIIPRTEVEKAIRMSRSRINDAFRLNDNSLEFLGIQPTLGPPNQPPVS
SARS-CoV-2 spike RBD-ACE2 interaction, sequence (Q9BYF1 18-740): as the sequence (Q9BYF1 18-740 limits assumed) above
recombinant sACE2, sequence (Q9BYF1 19-607): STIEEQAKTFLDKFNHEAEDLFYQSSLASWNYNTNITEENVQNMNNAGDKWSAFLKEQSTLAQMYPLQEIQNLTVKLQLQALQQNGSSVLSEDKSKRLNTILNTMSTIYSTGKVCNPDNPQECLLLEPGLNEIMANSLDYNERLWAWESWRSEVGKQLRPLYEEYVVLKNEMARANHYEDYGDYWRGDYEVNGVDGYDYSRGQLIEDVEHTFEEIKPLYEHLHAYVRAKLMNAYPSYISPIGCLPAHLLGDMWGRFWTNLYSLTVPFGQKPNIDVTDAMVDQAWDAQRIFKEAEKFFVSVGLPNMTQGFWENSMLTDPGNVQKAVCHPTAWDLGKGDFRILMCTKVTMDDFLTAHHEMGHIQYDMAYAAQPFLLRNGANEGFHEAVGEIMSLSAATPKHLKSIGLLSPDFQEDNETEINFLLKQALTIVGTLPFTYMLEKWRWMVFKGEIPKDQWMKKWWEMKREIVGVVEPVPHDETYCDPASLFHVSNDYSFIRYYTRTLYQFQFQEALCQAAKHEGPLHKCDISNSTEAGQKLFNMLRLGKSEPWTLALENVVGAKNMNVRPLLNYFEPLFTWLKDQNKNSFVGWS
S1 domain of SARS-CoV-2 spike-ACE2 interaction, sequence (Q9BYF1 18-740): as the sequence (Q9BYF1 18-740 limits assumed) above
Recombinant ACE2, sequence (Q9BYF1 18-805): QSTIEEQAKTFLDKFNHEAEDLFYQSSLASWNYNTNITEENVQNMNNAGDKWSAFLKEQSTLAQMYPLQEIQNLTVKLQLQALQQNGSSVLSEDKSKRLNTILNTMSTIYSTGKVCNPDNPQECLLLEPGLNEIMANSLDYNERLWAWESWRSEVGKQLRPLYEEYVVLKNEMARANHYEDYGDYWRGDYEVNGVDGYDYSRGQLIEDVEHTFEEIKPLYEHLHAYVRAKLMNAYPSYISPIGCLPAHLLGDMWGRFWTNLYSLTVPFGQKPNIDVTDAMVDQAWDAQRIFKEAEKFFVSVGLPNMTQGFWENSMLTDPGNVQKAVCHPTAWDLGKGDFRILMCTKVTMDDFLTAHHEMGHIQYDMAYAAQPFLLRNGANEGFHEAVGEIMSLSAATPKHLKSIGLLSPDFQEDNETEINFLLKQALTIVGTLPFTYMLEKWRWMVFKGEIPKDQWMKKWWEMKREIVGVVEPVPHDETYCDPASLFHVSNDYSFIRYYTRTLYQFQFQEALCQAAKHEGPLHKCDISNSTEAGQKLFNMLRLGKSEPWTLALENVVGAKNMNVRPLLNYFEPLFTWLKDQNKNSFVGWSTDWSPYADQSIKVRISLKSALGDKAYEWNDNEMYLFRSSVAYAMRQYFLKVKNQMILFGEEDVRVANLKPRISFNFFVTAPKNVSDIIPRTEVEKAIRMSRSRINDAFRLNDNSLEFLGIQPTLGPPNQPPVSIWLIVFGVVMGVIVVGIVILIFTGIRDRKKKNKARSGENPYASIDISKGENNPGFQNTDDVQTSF

Clc1ccc(COC(Cn2ccnc2)c2ccc(Cl)cc2Cl)cc1 (stereo not drawn) [econazole nitrate, econazole nitrate salt]
reduction in bioreporter signal, method B [1, 12]: −23%
reduction in bioreporter signal, method A [1, 13]: −36%

COc1cc(N)c(Cl)cc1C(=O)NC1CCN(CCCOc2ccc(F)cc2)CC1OC (stereo not drawn) [cisapride]
toxic at doses of more than (VeroE6 and VeroAT cells; VeroE6 / VeroAT, 48 h): more than 20 μM
IC50 [1, 14]: 16.5 µM
reduction in luminescence with the LATS biosensor (LATS biosensor): −13%
effect on VSV infection [2]: did not affect VSV infection at all concentrations tested
reduction in luminescence with nanoluciferase on its own (wild-type nanoluciferase): not nanoluciferase on its own

c1ccc(-c2ccc(C(c3ccccc3)n3ccnc3)cc2)cc1 (stereo not drawn) [bifonazole]
fusion of ACE2- and ACE2/TMPRSS2-expressing cells with spike-expressing HEK293T cells [3]: dose-dependent reduction in fusion
viral mRNA and infectious particles (TCID50) (SARS-CoV-2): reduction in viral mRNA as well as infectious particles
inhibition at 4 µM ([4]; read-out: inhibition of luminescence, SARS-CoV RBD/ACE2, method A): 45%
inhibition at 4 µM ([4]; read-out: inhibition of luminescence, SARS-CoV RBD/ACE2, method B): 22%
inhibition of ACE2 enzymatic activity (Recombinant ACE2): does not involve inhibition of ACE2 enzymatic activity
effect on sACE2 unfolding by urea (recombinant sACE2): stabilizes sACE2
concentration up to which no overt toxicity (VeroE6 and VeroAT cells; African green monkey): up to 100 μM
bioreporter complementation, pre-treatment of ACE2 followed by RBD [1]: complete abrogation of bioreporter complementation and luminescence
concentration inhibiting WT ACE2 binding to the RBD to similar levels as αRBD [1]: 3.29 µM
reduction in bioreporter signal, method A [1]: −46%
reduction in bioreporter signal, method B [1]: −51%
IC50 [1]: 1.3 µM and 1.6 µM
inhibition at 4 µM ([1]; read-out: peak inhibition, pre-treatment of RBD followed by ACE2): 50%
inhibition at 3.29 µM ([1]; read-out: signal inhibition): 80%
half-life (t1/2), first phase of biphasic elimination [5]: 7 h
half-life (t1/2), second phase of biphasic elimination [5]: 42 h
spike protein levels (immunoblotting) [6]: dramatic reduction in spike protein levels
viral burden by TCID50 assay [6]: reduced
viral mRNA levels (qPCR) [6]: significant reduction in viral mRNA levels
effect on cell viability (A549-hACE2 cells): no effect on cell viability at the dose tested
reduction in binding, ACE2 and S1 domain of spike [7]: ~30%
viral RNA levels of VOCs [8]: significant reduction in output of the VOCs
reduction in pY705-Stat3 in the lungs (VSV-Spike (strain 2)): ~50%
reduction of lethality (VSV-Spike (strain 2)): 40%
survival (VSV-Spike (strain 2)): 2 of 5
survival of challenged mice (VSV-Spike (strain 2)): 40%
viral load in lungs by qRT-PCR (VSV-Spike (strain 2)): significant reduction in viral load
oral doses that could result in embryotoxicity [9]: > 30 mg/kg
WT VSV infection (entry) (wild-type VSV-GFP): largely unaffected
WT VSV plaque size (wild-type VSV-GFP): no effect on WT VSV
VSV-Spike plaque size [2]: reduction in VSV-Spike plaque size
concentration giving spike-specific reduction in viral growth [2]: ~35 µM
immunofluorescent VSV staining, spike-pseudotyped VSV strains [2]: complete abrogation of VSV staining
viral entry of pseudotyped VSV-Spike [2]: significant impairment in viral entry
tolerability [10]: well tolerated
survival [11]: 8 of 11
weight after infection [11]: lost less weight
effect on viability (VeroE6-hTMPRSS2 cells): no effect on viability at the antiviral dose tested

Clc1ccccc1C(c1ccccc1)(c1ccccc1)n1ccnc1 [clotrimazole]
reduction in bioreporter signal, method A [1, 13]: −21%

CCOC1O[C@H]([C@@H](COCc2ccccc2)OCc2ccccc2)[C@H](OCc2ccccc2)[C@H]1O (stereo partly drawn) [tribenoside]
reduction in bioreporter signal, method B [1, 12]: −9%
reduction in bioreporter signal, method A [1, 13]: −21%

CC(C)C(=O)OC[C@H]1O[C@@H](n2ccc(NO)nc2=O)[C@H](O)[C@@H]1O [Molnupiravir]
reduction of hospitalization or death (COVID-19; oral treatment, clinical): 50%

CC(=O)N1CCN(c2ccc(OCC3COC(Cn4ccnc4)(c4ccc(Cl)cc4Cl)O3)cc2)CC1 (stereo not drawn) [ketoconazole]
IC50 ([1]; method B, imidazole comparison, Figure 3B): 14.5 µM
reduction in bioreporter signal, method A [1, 13]: −29%
concentration giving spike-specific reduction in viral growth [2]: ~80 µM

C#C[C@]1(O)CC[C@H]2[C@@H]3CCc4cc(O)ccc4[C@H]3CC[C@@]21C [ethynylestradiol, 17a-ethynylestradiol]
inhibition at 4 µM [4, 15]: 3 to 6%
IC50 [1, 14]: 2.6 µM

COC(=O)C1=C(C)NC(C)=C(C(=O)OCCN(C)Cc2ccccc2)C1c1cccc([N+](=O)[O-])c1 (stereo not drawn) [nicardipine, nicardipine HCl]
inhibition at 4 µM [4, 15]: 3 to 6%
IC50 [1, 14]: 1.9 µM

CCC(C)n1ncn(-c2ccc(N3CCN(c4ccc(OCC5COC(Cn6cncn6)(c6ccc(Cl)cc6Cl)O5)cc4)CC3)cc2)c1=O (stereo not drawn) [itraconazole]
efficacy in hospitalized individuals (COVID-19; administered orally, clinical study): no efficacy

Source: paper PMC9075979 (Molecular Therapy, 2022)
